Source: paper PMC11864979, “First-in-class ultralong-target-residence-time p38α inhibitors as a mitosis-targeted therapy for colorectal cancer” (Nature Cancer, 2025)
Where “and” joins values, the source holds several entries; their conditions need not be identical. Identical values can stand only once.

Columns and labels:
KAP^2D cells [1] = assay: annexin V apoptosis analysis in KAP^2D cells; type: cell-based, mouse; conditions: Fig. 5a
Description: Apoptosis was analyzed with the FITC annexin V apoptosis detection kit (Biolegend). Both measurements were performed with FACS Canto II (BD) and physical parameters were used to exclude cell debris and cell doublets.

p38α = p38α (Homo sapiens, UniProt Q16539); assay: target residence time (TRT) fluorescence polarization jump-dilution assay; type: binding
Description: TRTs were determined using a fluorescence polarization assay kit (Transcreener ADP, BellBrook Labs)[29]. […] The formed complex was ‘jump-diluted’ 1:100 (0.5 µl in 49.5 µl) in a 96-half-area-well plate with ATF2 (82 μM), ATP (40 μM) and ADP as the kinase assay detection reagents. The plate was measured every 3 min for 4 h. Fluorescence polarization was detected using the plate reader VictorNivo (PerkinElmer). The data were analyzed using the integrated rate equation in GraphPad Prism version 7.03 software. The residence time was calculated from the reciprocal value of koff.

PDO6 = assay: cell viability in patient-derived CRC organoids PDO6; type: cell-based, human
Description: (§1) For in vitro treatment studies, organoids were mechanically dissociated and digested using TrypLE supplemented with 100 µg ml^−1 DNaseI and 10.5 µM Y-27632 dihydrochloride (Invitrogen) at 37 °C. A total of 1,000–2,000 single cells were plated per well in white 96-well plates (Greiner) in culture medium containing 10% GFR Matrigel or Cultrex BME. The treatment with doxycycline (5 µg ml^−1), pharmacological inhibitors or corresponding volumes of DMSO was started 24 h after plating. Doxycycline was obtained from Sigma-Aldrich. […] Cell viability was measured by means of CellTiter-Glo 3D or CellTiter-Glo 2.0 reagent (Promega) according to the manufacturers’ instructions and the Infinite M Plex reader (Tecan, i-control version 3.9.1 software). Results were normalized to vehicle (DMSO) or to shNC. For cell-doubling assays, the cell number was quantified at the corresponding time points using Guava EasyCyte flow cytometer (Luminex, CytoSoft v5.2 software).

KAP^2D cells [2] = assay: quantification of viable KAP^2D cells over time (cell-doubling assay); type: cell-based, mouse; conditions: Fig. 4i
Description: The treatment with doxycycline (5 µg ml^−1), pharmacological inhibitors or corresponding volumes of DMSO was started 24 h after plating. […] Cell viability was measured by means of CellTiter-Glo 3D or CellTiter-Glo 2.0 reagent (Promega) according to the manufacturers’ instructions and the Infinite M Plex reader (Tecan, i-control version 3.9.1 software). Results were normalized to vehicle (DMSO) or to shNC. For cell-doubling assays, the cell number was quantified at the corresponding time points using Guava EasyCyte flow cytometer (Luminex, CytoSoft v5.2 software).

LS 174T = assay: cell viability in human CRC cell line LS 174T; type: cell-based; conditions: 4 d
Description: The cells were cultured at 37 °C and 7% CO2 with RPMI (KAP^2D cells) or DMEM (other cell lines), supplemented with 10% FBS and penicillin–streptomycin. […] No commonly misidentified cell lines were used. Mycoplasma contamination was excluded by a PCR-based analysis.

HT-29 = assay: cell viability in human CRC cell line HT-29; type: cell-based; conditions: ED Fig. 9h, replicates
Description: To generate KAP^2D cells, KAP organoids were isolated from Matrigel, fragmented by mechanical dissociation and plated without any extracellular matrix on common cell culture dishes. Phoenix-Eco packaging cells (CRL-3214), HCT-15 (CCL-225), HCT 116 (CCL-247), COLO 205 (CCL-222), LS 174T (CL-188), RKO (CRL-2577) and HT-29 (HTB-38) were obtained from the American Type Culture Collection. The cells were cultured at 37 °C and 7% CO2 with RPMI (KAP^2D cells) or DMEM (other cell lines), supplemented with 10% FBS and penicillin–streptomycin. KAP^2D cells were authenticated using PCR (Kras locus and Trp53 locus). Phoenix-Eco packaging cells and HCT-15, HCT 116, COLO 205, LS 174T, RKO and HT-29 cells were authenticated by the provider using short tandem repeat profiling. No commonly misidentified cell lines were used. Mycoplasma contamination was excluded by a PCR-based analysis.
as §1

Chain of p38α (Q16539 whole entry): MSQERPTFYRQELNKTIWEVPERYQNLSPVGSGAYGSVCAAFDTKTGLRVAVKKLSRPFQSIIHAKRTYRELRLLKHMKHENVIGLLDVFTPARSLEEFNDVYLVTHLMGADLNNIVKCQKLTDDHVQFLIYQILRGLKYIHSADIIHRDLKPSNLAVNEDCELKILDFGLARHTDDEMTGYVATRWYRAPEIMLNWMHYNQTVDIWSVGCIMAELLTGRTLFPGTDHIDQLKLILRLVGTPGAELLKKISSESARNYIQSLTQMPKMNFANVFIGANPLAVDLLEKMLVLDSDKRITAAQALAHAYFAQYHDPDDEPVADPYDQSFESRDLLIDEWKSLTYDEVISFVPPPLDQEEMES

Compound: O=C(NCCN1CCOCC1)c1ccc2c(c1)C(=O)c1ccc(Nc3ccc(F)c(NC(=O)c4ccccc4)c3)cc1CC2 [Compound 1639]
- Annexin V+ cells (KAP^2D cells [1]; 1 d of treatment): 8.73% and 12.40% and 11.20% and 14.50% and 15.70% and 14.40%
- Annexin V+ cells (KAP^2D cells [1]; 2 d of treatment): 12.80% and 17.60% and 14.40% and 15.50% and 16.80% and 17.40%
- Annexin V+ cells (KAP^2D cells [1]; 3 d of treatment): 16.10% and 14.80% and 15.90% and 19.00% and 17.40% and 18.40%
- Annexin V+ cells (KAP^2D cells [1]; 4 d of treatment): 26.70% and 25.10% and 21.50% and 18.80% and 17.30% and 19.40%
- TRT (p38α; Fig. 2e, replicates): 191.2 s and 188.8 s and 173.0 s
- TRT (p38α; reciprocal of koff): 184 s
- viability at 1 µM (PDO6; Homo sapiens, 96 h, PDO6, 1 µM, 4 days, read-out: Cell viability (%)): 88.1%
- Cell viability (%) (PDO6; PDO6, 0.5 µM, 4 d, 0.5 µM): 89.33% and 120.75% and 95.55%
- Cell viability (%) (PDO6; PDO6, 1 µM, 4 days, 1 µM): 103.21% and 96.02%
- Number of cells (KAP^2D cells [2]; 0 h of treatment): 41307.05 and 44263.95 and 43595.63 and 48502.24 and 40389.64
- Number of cells (KAP^2D cells [2]; 12 h of treatment): 90535.27 and 109902.14 and 96345.55 and 78642.86 and 78628.27 and 80020.34
- Number of cells (KAP^2D cells [2]; 24 h of treatment): 118591.59 and 122111.73 and 126637.09 and 105052.10 and 107245.70 and 108446.50
- Number of cells (KAP^2D cells [2]; 36 h of treatment): 147204.34 and 141762.38 and 180655.61 and 129977.80 and 144707.50 and 146373.80
- Number of cells (KAP^2D cells [2]; 48 h of treatment): 236686.34 and 244575.91 and 256532.61 and 222624.00 and 201311.80 and 207320.10
- Number of cells (KAP^2D cells [2]; 60 h of treatment): 438717.24 and 412186.50 and 425643.09 and 324012.80 and 330875.70 and 354806.50
- LS 174T Cell viability (%) (LS 174T; 0.0137 µM): 96.96% and 98.13% and 93.47% and 92.87% and 103.70%
- LS 174T Cell viability (%) (LS 174T; 0.0412 µM): 88.17% and 87.93% and 84.72% and 87.30% and 86.06%
- LS 174T Cell viability (%) (LS 174T; 0.1235 µM): 73.32% and 74.11% and 80.93% and 80.83% and 84.53%
- LS 174T Cell viability (%) (LS 174T; 0.3704 µM): 72.52% and 70.49% and 77.50% and 75.15% and 72.31%
- LS 174T Cell viability (%) (LS 174T; 1.1111 µM): 73.18% and 76.23% and 79.82% and 74.44% and 73.58%
- LS 174T Cell viability (%) (LS 174T; 3.3333 µM): 64.63% and 65.58% and 65.84% and 62.28% and 62.47%
- LS 174T Cell viability (%) (LS 174T; 10.0000 µM): 22.96% and 24.63% and 23.18% and 23.96% and 22.77%
- viability at 0.0137 µM (LS 174T; Homo sapiens, LS174T, 96 h, 0.0137 µM, read-out: LS 174T Cell viability (%)): 95%
- viability at 0.0412 µM (LS 174T; Homo sapiens, LS174T, 96 h, 0.0412 µM, read-out: LS 174T Cell viability (%)): 81.8%
- viability at 0.1235 µM (LS 174T; Homo sapiens, LS174T, 96 h, 0.1235 µM, read-out: LS 174T Cell viability (%)): 73.7%
- viability at 0.3704 µM (LS 174T; Homo sapiens, LS174T, 96 h, 0.3704 µM, read-out: LS 174T Cell viability (%)): 74.4%
- viability at 1.1111 µM (LS 174T; Homo sapiens, LS174T, 96 h, 1.1111 µM, read-out: LS 174T Cell viability (%)): 77.1%
- viability at 3.3333 µM (LS 174T; Homo sapiens, LS174T, 96 h, 3.3333 µM, read-out: LS 174T Cell viability (%)): 68.9%
- viability at 10 µM (LS 174T; Homo sapiens, LS174T, 96 h, 10.0000 µM, read-out: LS 174T Cell viability (%)): 24.4%
- HT-29 Cell viability (%) (HT-29; 0.0137 µM, Repetition): 102.28% and 94.62%
- HT-29 Cell viability (%) (HT-29; 0.0137 µM, first experiment): 94.47% and 95.05%
- HT-29 Cell viability (%) (HT-29; 0.0412 µM, Repetition): 101.53% and 96.63%
- HT-29 Cell viability (%) (HT-29; 0.0412 µM, first experiment): 94.54% and 96.05%
- HT-29 Cell viability (%) (HT-29; 0.1235 µM, Repetition): 102.40% and 91.02%
- HT-29 Cell viability (%) (HT-29; 0.1235 µM, first experiment): 88.93% and 89.95%
- HT-29 Cell viability (%) (HT-29; 0.3704 µM, Repetition): 96.43% and 88.31%
- HT-29 Cell viability (%) (HT-29; 0.3704 µM, first experiment): 89.51% and 89.95%
- HT-29 Cell viability (%) (HT-29; 1.1111 µM, Repetition): 89.29% and 79.16%
- HT-29 Cell viability (%) (HT-29; 1.1111 µM, first experiment): 95.25% and 92.43%
- HT-29 Cell viability (%) (HT-29; 3.3333 µM, Repetition): 53.45% and 49.18%
- HT-29 Cell viability (%) (HT-29; 3.3333 µM, first experiment): 66.80% and 71.86%
- HT-29 Cell viability (%) (HT-29; 10.0000 µM, Repetition): 3.09% and 3.77%
- HT-29 Cell viability (%) (HT-29; 10.0000 µM, first experiment): 4.59% and 5.12%
